Measurements as given in patent publication US20110212235A1, “ANTIMICROBIAL SALT SOLUTIONS FOR CHEESE PROCESSING APPLICATIONS” (priority 2006, published 2011).

Tests used:
Assay type in all cases: cell-based
[1] = system: wild type coliforms from cheese plant brine; experiment: Coliforms procedure in cheese brine or buffered solution
[2] = system: yeast cocktail (Raised, Rough and Flat white yeast and a pink yeast); experiment: “Yeast” procedure, yeast cocktail
Text: In the present example, cultures of various microorganisms native to actual process brines used in cheese manufacture were obtained from a cheese plant. […] Organism cultures included four different types of yeast (three distinct while yeast cultures and a pink yeast), a black mold culture, a coliform culture, a culture of mixed green mold and yeast that were not separated, and a culture that was identified by the cheese plant as heterofermentative lactic acid bacteria, although no actual identification of the strain was carried out.
(§1) “Yeast” Procedure: • 1. Inoculate a separate tube containing 10 ml of Brain Heart Infusion (BHI) broth for each wild type (Raised, Rough and Flat white yeast along with a single pink yeast). Incubate for 5 days at 26° C.+/−2° C. • 2. Assume growth to be 10^7 cfu/ml. Since 4 cultures are being used, combine 2.75 ml of each culture added to 99 ml of cold Butterfield's Phosphate Buffered Water (PBW) to obtain 10^6 cfu/ml of yeast cocktail. • 3. Plate serial dilutions of the culture to get the starting count of the inoculum on Dichloran-Rose Bengal-Chloramphenicol Agar (DRBC). • 4. Add 1 ml of the diluted cocktail to 100 ml of cold test solution. • 5. Determine the population at time 0 and 4 hours. Spread plate serial dilutions to DRBC agar. • 6. Incubate the test solutions at 10° C.+/−2° C. for the duration of the experiment. • 7. Incubate the plates at 20° C.+/−2° C. for 5 days+/−2 hours. • 8. Count representative colonies and multiply by the dilution factor. Note: Each test solution should contain ˜10^4 cfu/ml.
(§2) The brines were treated with different concentrations of octanoic acid and then challenged with a yeast cocktail (which included the pink and 3 different white mold types), the green mold+yeast combination, and coliforms.

black mold = experiment: “Mold” procedure, black mold
Protocol: (§3) In the present example, cultures of various microorganisms native to actual process brines used in cheese manufacture were obtained from a cheese plant. The cultures of yeast, mold, and coliforms were grown and used to test the efficacy of various antimicrobial additives in blue cheese brines. Organism cultures included four different types of yeast (three distinct while yeast cultures and a pink yeast), a black mold culture, a coliform culture, a culture of mixed green mold and yeast that were not separated, and a culture that was identified by the cheese plant as heterofermentative lactic acid bacteria, although no actual identification of the strain was carried out.
(§4) “Mold” Procedure: • 1. From refrigerated stock mold cultures, take 1 ml from black mold dilution bottle added to 99 ml of cold Butterfield's Phosphate Buffered Water (PBW) to obtain 10^5 cfu/ml. • 2. Take 1 ml from green mold/white yeast mixture dilution bottle added to 99 ml of cold Butterfield's Phosphate Buffered Water (PBW) to obtain 10^6 cfu/ml. • 3. Plate serial dilutions of the cultures to get the starting count of the inoculum on Dichloran-Rose Bengal-Chloramphenicol Agar (DRBC). • 4. Add 1 ml of the diluted mold culture to 100 ml of cold test solution (do separately for each of the two mold cultures). • 5. Determine the population at time 0 and 4 hours. Spread plate serial dilutions to DRBC agar. • 6. Incubate the test solutions at 10° C.+/−2° C. for the duration of the experiment. • 7. Incubate the plates at 20° C.+/−2° C. for 5 days+/−2 hours. • 8. Count representative colonies and multiply by the dilution factor. Note: For black mold, each test solution should contain ˜10^3 cfu/ml. For green mold/white yeast mixture, each test solution should contain ˜10^4 cfu/ml.

L. monocytogenes [3] = experiment: L. monocytogenes challenge in beef plant chill brine at 4° C.; details: after 4 hours at 4° C.; surfactant added to beef plant brine, approximately 17% sodium chloride
Protocol: (§5) 1. Inoculate a separate tube containing approximately 10 ml of Brain Heart infusion (BHI) broth with the following L. monocytogenes strains: H2446 (CDC Global Standard), Scott A (serotype 4b), 12243 (serotype 1/2a), and two strains isolated from the environment of a cooked meat and poultry facility, designated WP1, and WP4. Incubate the tubes at least 5 days at 7-10° C.+/−2° C. 2. Assume the growth to be 10^9 cfu/ml. Serially dilute each culture in cold (˜7° C.). Butterfield's Phosphate Buffered Water (PBW) to 10^8 cfu/ml (1:10). Since five cultures of L. monocytogenes are being used as a cocktail, begin the dilution series using 2.20 ml of each culture added to 99 ml of PBW. 3. Plate (−6, −7, −8) the diluted culture to get the starting count of the inoculum on Modified Oxford medium (MOX) using a thin agar overlay (TAL) technique (overlay with Trypticase Soy Agar [TSA]) to revive injured cells. 4. Add 1 ml of the diluted cocktail to 100 ml of cold test solution. 5. Mix the solutions well. 6. Determine the L. monocytogenes population at time 0 and 4 hours. Plate −1 (0.1 ml on 1 plate), −2, −3, and −4 dilutions using spread plates on MOX TAL with TSA. 7. Incubate the test solutions at test temperature for the duration of the experiment. 8. Incubate the MOX TAL with TSA plates at 20° C.+/−2° C. for 72+/−3 hours. Count representative colonies, which are black, and multiply by the dilution factor.
Several tests were carried out to determine the effectiveness of embodiments according to the invention in meat processing chill brines. In one experiment, brine was taken at the end of a production week from a brine chiller used in a ready to eat, cooked beef production line. The sodium chloride concentration in this brine was approximately 17%. Samples of the brine with and without added surfactant were inoculated with a cocktail of L. monocytogenes as per the procedure described above, incubated at 4° C. for four hours, and then plated to determine L. monocytogenes survival.

L. monocytogenes [4] = experiment: L. monocytogenes cocktail challenge of surfactant/salt solutions at 2° C.; details: after 4 hours in solution at 2° C.
Protocol: Tests were generally run according to the following procedure:
as §5

[5] = system: wild type coliforms from cheese plant brine; experiment: Coliforms procedure in cheese brine or buffered solution; remark: listed apart in the source
Protocol: as §3
Coliforms Procedure: • 1. Inoculate a separate tube containing 10 ml of Brain Heart Infusion (BHI) broth for each wild type coliforms 1 and 2. Incubate for 24+/−2 hours at 35° C.+/−2° C. • 2. Assume growth to be 10^9 cfu/ml. Since two cultures are being used, combine 5.5 ml of each culture added to 99 ml of cold Butterfield's Phosphate Buffered Water (PBW) to obtain 10^8 cfu/ml. • 3. Plate serial ten-fold dilutions of the culture to get the starting count of the inoculum on Violet Red Bile Agar (VRBA). • 4. Add 1 ml of the diluted cocktail to 100 ml of cold test solution. • 5. Determine the population at time 0 and 4 hours by plating serial dilutions to VRBA spread plates. • 6. Incubate the test solutions at 10° C.+/−2° C. for the duration of the experiment. • 7. Incubate the plates at 20° C.+/−2° C. for 72+/−2 hours. • 8. Count representative colonies and multiply by the dilution factor. Note: Each test solution should contain ˜10^8 cfu/ml.
as §2

Pink Yeast = experiment: Yeast challenge, pink yeast; details: after 4 hours in mozzarella cheese brine; Table 19
Protocol: as §1
(§6) In order to determine if the effect of the additive was repeatable, more challenge tests were run on samples of process brine. […] In this test the solutions were challenged with two distinct yeast (a white and a pink) types and coliforms from the samples sent by the cheese plant.

White Yeast = experiment: Yeast challenge, white yeast; details: after 4 hours in mozzarella cheese brine; Table 19
Protocol: as §1, §6

[6] = system: green mold/white yeast mixture; experiment: “Mold” procedure, green mold/white yeast mixture; details: 500 ppm in mozzarella brine
Protocol: as §3, §4
Screening tests identified octanoic acid as a promising antimicrobial additive for salt brines. Table 16 gives results of a challenge test run on actual blue cheese and mozzarella process brine samples sent from a cheese plant. The brines were treated with different concentrations of octanoic acid and then challenged with a yeast cocktail (which included the pink and 3 different white mold types), the green mold+yeast combination, and coliforms. […] The plate counts listed parenthetically as (est) were too numerous to count and were estimated.

[7] = after 4 hours in buffer of 375 ppm acetic acid and 525 ppm sodium acetate, pH 4.74
[8] = Table 2, different salts and salt concentrations
[9] = after 4 hours in blue cheese brine taken before or after brining cheese wheels, Table 22
[10] = about 250 ppm in blue cheese brine

Molecule | Coliform count [1, 7] | Yeast Cocktail count [2, 7] | Black Mold count (black mold; [7]) [cfu/mL] | L. mono count (L. monocytogenes [3]) [cfu/mL] | L. mono count (L. monocytogenes [4]; Table 1) | also measured
CCCCCCCC(=O)[O-].[Na+] [35 ppm Na Octanoate, sodium octanoate] | 7,000 cfu/mL | 9,000 cfu/mL | 710 |  |  | 
CCCCCCCC(=O)[O-].[Na+] [70 ppm Na Octanoate, sodium octanoate] | 12,000 cfu/mL | 7,500 cfu/mL | 510 |  |  | 
[Cl-].[Na+] [24% NaCl, sodium chloride, reference compound] | 11,000 cfu/mL | 6,600 cfu/mL | 660 |  |  | 
sodium olefin sulfonate [50 ppm sodium olefin sulfonate] |  |  |  | 10 |  | L. mono count (L. monocytogenes [4]; [8]): 1.8 × 10^5 cfu/mL
CCCCCCCC(=O)O [250 ppm octanoic acid (after cheese), octanoic acid] |  |  |  |  |  | Coliform count [5, 9]: <10 cfu/mL; Yeast Cocktail count [2, 9]: <10 cfu/mL; Black Mold count (black mold; [9]): <10 cfu/mL
lauramine oxide [50 ppm lauramine oxide] |  |  |  | <10 | 3.6 × 10^3 cfu/mL | L. mono count (L. monocytogenes [4]; [8]): 5.8 × 10^4 cfu/mL
CCCCCCCC(=O)[O-].[Na+] [140 ppm Na Octanoate, sodium octanoate] | 7,700 cfu/mL | 10,000 cfu/mL | 630 |  |  | 
fatty alkanolamide [50 ppm fatty alkanolamide] |  |  |  | <10 | 1.1 × 10^4 cfu/mL | 
CCCCCCCC(=O)O [1250 ppm octanoic acid, octanoic acid] |  |  |  |  |  | Pink Yeast count (Pink Yeast): <10 cfu/mL; Coliform count ([1]; after 4 hours in mozzarella cheese brine, Table 19): 1.2 × 10^3 cfu/mL; White Yeast count (White Yeast): <10 cfu/mL
nonylphenol ethoxylate [50 ppm nonylphenol ethoxylate] |  |  |  | <10 | 1.3 × 10^5 cfu/mL | 
nonylphenol ethoxylate [12.5 ppm nonylphenol ethoxylate] |  |  |  | 20 |  | 
sodium linear alkylbenzene sulfonate |  |  |  | <10 | 5.9 × 10^3 cfu/mL | 
CCCCCCCC(=O)O [octanoic acid, octanoic (caprylic) acid] |  |  |  |  |  | log kill of coliform [5, 10]: ~3 log; log reduction in the coliform count ([1]; 500 ppm in mozzarella brine): 2 log; log kill of coliforms ([1]; mozzarella brine, Table 19): ~2 log; log kill of one of the yeast cultures ([2]; 250 ppm in mozzarella brine (so in the source)): > 3.76 log; log kill of yeast [2, 10]: ~3 log; log kill of mold (black mold; [10]): ~3 log; log reduction in the yeast+mold count [6]: 2 log
